Assays:
[1] = Example 5: plasma pharmacokinetics of oxymorphone and metabolites after EN3202 in renal impairment vs healthy controls; details: for AUC in plasma (mean, untransformed) / AUCT in plasma (mean, untransformed) / Cmax in plasma (mean, untransformed) / Ke, terminal elimination rate constant in plasma (mean) / Tmax in plasma (median) / t½, terminal elimination half-life in plasma (mean): single 20 mg dose of EN3202
Experimental: (§1) Attempts were made to match controls with the renal impaired patients with respect to age, gender, and weight. […] Naltrexone (50 mg) was administered on the evening prior to administration of the EN3202 dose.
In order to protect the subjects from potential opioid-related adverse events, a single 50-mg dose of the opioid antagonist ReVia® (naltrexone HCl) was administered at 20:00 the evening prior to administration of test medication. […] Subjects continued fasting until four (4) hours after dose administration. The subjects remained in an upright posture (sitting or standing) for 1 hour after dose administration. All doses were administered with 240 mL of water (room temperature), and the subjects were instructed to drink all the water.
(§2) Plasma and urine pharmacokinetic variables were calculated from the concentration data using standard, non-compartmental methods as outlined in the following table.
All pharmacokinetic results are summarized using appropriate descriptive statistics. Continuous variables were compared between renally impaired and control groups using appropriate parametric statistics. 90% confidence intervals were calculated for the differences or ratios between the renally impaired and control groups. In addition, the association between oral clearance (and other pharmacokinetic variables) and the severity of renal insufficiency (based on creatinine clearance) was explored.

[2] = Example 5: urinary excretion of oxymorphone and metabolites after EN3202 in renal impairment; details: for Mean (SD) Ratio of Metabolite/Parent Excreted in Urine: parent = oxymorphone; for Mean (SD) Percent of Dose Recovered in Urine (0-120 hours): single oral 20-mg dose of EN3202
Experimental: as §1
Each subject was to be instructed to void at the end of each interval (so that each collection interval began with an empty bladder). The void prior to administration of the test medication (time 0) served as the pre-dose blank and was not be included in the collection container.
as §2

[3] = Example 5: correlation of oxymorphone and metabolite plasma AUC / oral clearance with creatinine clearance; type: in vivo, human; details: linear regression
Description: Creatinine clearance (ClCR) was estimated at screening using the following Cockroft and Gault^8 equation: […]
All pharmacokinetic results are summarized using appropriate descriptive statistics.
The potential association between plasma AUC and creatinine clearance was explored using linear regression techniques and the results are summarized in Table 36 and FIG. 16.

[4] = Pain levels (VAS, categorical scale) vs plasma oxymorphone and 6-hydroxyoxymorphone after a single dose; type: in vivo, human; details: single dose of oxymorphone, FIGS. 1-4
Experimental: For these tests, pain was measured using a Visual Analog Scale (VAS) or a Categorical Scale. The VAS scales consisted of a horizontal line, 100 mm in length. The left-hand end of the scale (0 mm) was marked with the descriptor “No Pain” and the right-hand end of the scale (100 mm) was marked with the descriptor “Extreme Pain”. Patients indicated their level of pain by making a vertical mark on the line. The VAS score was equal to the distance (in mm) from the left-hand end of the scale to the patient's mark. For the categorical scale, patients completed the following statement, “My pain at this time is” using the scale None=0, Mild=1, Moderate=2, or Severe=3.

[5] = EN3202 20 mg, mild renal impairment, ln-transformed
[6] = subjects with mild renal impairment
[7] = subjects with moderate renal impairment
[8] = subjects with severe renal impairment
[9] = AUC normalized for body weight vs creatinine clearance
[10] = plasma AUC vs creatinine clearance

## CN1CC[C@]23c4c5ccc(O)c4O[C@H]2C(O)CC[C@@]3(O)[C@H]1C5 (stereo partly shown) [6-OH-oxymorphone, 6-hydroxy oxymorphone]
[1]; [5]
  Mean bioavailability ratio (90% confidence interval) for AUC relative to controls: 0.9953 (0.6153-1.6100)
  Mean bioavailability ratio (90% confidence interval) for Cmax relative to controls: 1.4818
[1]; EN3202 20 mg, moderate renal impairment, ln-transformed
  Mean bioavailability ratio (90% confidence interval) for AUC relative to controls: 0.9445 (0.5839-1.5279)
[1]; EN3202 20 mg, severe renal impairment, ln-transformed
  Mean bioavailability ratio (90% confidence interval) for AUC relative to controls: 1.3862 (0.8569-2.2423)
[1]; Healthy Controls
  AUC in plasma (mean, untransformed): 19.76 ng·h/mL
  AUCT in plasma (mean, untransformed): 14.95 ng·h/mL
  Cmax in plasma (mean, untransformed): 0.70 ng/mL
  Ke, terminal elimination rate constant in plasma (mean): 0.0449
  Tmax in plasma (median): 1.5 h
  t½, terminal elimination half-life in plasma (mean): 22.20 h
[1]; Mild Impairment
  AUC in plasma (mean, untransformed): 18.57 ng·h/mL
  AUCT in plasma (mean, untransformed): 14.26 ng·h/mL
  Cmax in plasma (mean, untransformed): 0.99 ng/mL
  Ke, terminal elimination rate constant in plasma (mean): 0.0451
  Tmax in plasma (median): 1.5 h
  t½, terminal elimination half-life in plasma (mean): 18.04 h
[1]; Moderate Impairment
  AUC in plasma (mean, untransformed): 17.64 ng·h/mL
  AUCT in plasma (mean, untransformed): 11.70 ng·h/mL
  Cmax in plasma (mean, untransformed): 0.76 ng/mL
  Ke, terminal elimination rate constant in plasma (mean): 0.0312
  Tmax in plasma (median): 2.5 h
  t½, terminal elimination half-life in plasma (mean): 27.82 h
[1]; Severe Impairment
  AUC in plasma (mean, untransformed): 32.04 ng·h/mL
  AUCT in plasma (mean, untransformed): 26.48 ng·h/mL
  Cmax in plasma (mean, untransformed): 0.99 ng/mL
  Ke, terminal elimination rate constant in plasma (mean): 0.0349
  Tmax in plasma (median): 2.0 h
  t½, terminal elimination half-life in plasma (mean): 26.53 h
[2]; EN3202 20 mg, 0-120 hours, severe renal impairment
  Mean percentage of the administered dose excreted in the urine: 0.16%
[2]; EN3202 20 mg, healthy controls
  Mean urinary elimination half-life: 22.8 h
[2]; EN3202 20 mg, mild renal impairment
  Mean urinary elimination half-life: 19.6 h
[2]; EN3202 20 mg, moderate renal impairment
  Mean urinary elimination half-life: 22.4 h
[2]; EN3202 20 mg, severe renal impairment
  Mean urinary elimination half-life: 34.4 h
[2]; healthy controls
  Mean (SD) Ratio of Metabolite/Parent Excreted in Urine: 0.85 (0.27)
  Mean (SD) Percent of Dose Recovered in Urine (0-120 hours): 0.62 (0.28) %
[2]; [6]
  Mean (SD) Ratio of Metabolite/Parent Excreted in Urine: 0.73 (0.45)
  Mean (SD) Percent of Dose Recovered in Urine (0-120 hours): 0.49 (0.15) %
[2]; [7]
  Mean (SD) Ratio of Metabolite/Parent Excreted in Urine: 0.41 (0.22)
  Mean (SD) Percent of Dose Recovered in Urine (0-120 hours): 0.26 (0.14) %
[2]; [8]
  Mean (SD) Ratio of Metabolite/Parent Excreted in Urine: 0.47 (0.42)
  Mean (SD) Percent of Dose Recovered in Urine (0-120 hours): 0.16 (0.11) %
[3]; [9]
  AUC/wt vs. CLCR: R-square: 0.1222
  AUC/wt vs. CLCR: Slope: −0.0011
[3]; [10]
  AUC vs. CLCR: R-square: 0.0977
  AUC vs. CLCR: Slope: −0.1387
[4]
  Relation between pain relief and blood plasma level: there is a correlation

Reference: patent US8808737B2 (Endo Pharmaceuticals Inc., priority 2007, dated 2014)
